Experiments:
Escherichia coli = test: minimum inhibitory concentration, broth two-fold serial dilution test, Escherichia coli; assay type: cell-based, Escherichia coli ATCC 11229; conditions: for MIC: Escherichia coli, ATCC11229, Escherichia coli ATCC 11229, TSB media, lowest concentration with complete inhibition of growth, read-out: MIC (TSB media) Ecol; for MIC (TSB media) Ecol: Escherichia coli ATCC 11229, lowest concentration with complete inhibition of growth
Method: (§1) Bactericidal and fungicidal evaluations of the compounds of Example 5 were carried out.
(§2) A minimum inhibitory concentration (MIC) value is obtained using a broth, two-fold serial dilution test performed as follows: A stock solution or dispersion of the test compound, typically at a concentration of 1%, is made in a 5:3:2 solvent solution of acetone, methanol, and water. A volume of the stock solution is dispensed into culture media to give an initial starting test concentration of 500 ppm compound.
(§3) When the test is ready to be done, each vessel in the dilution series, except the first vessel, contains an equal volume of compound free broth. The first vessel contains twice the volume of broth with the starting concentration of test compound. One half of the broth from the first vessel is transferred to the second vessel. After being mixed, one half the resulting volume is removed from the second vessel and transferred to the third vessel. The entire cycle is repeated sufficiently to give a series of concentrations amounting to 500, 250, 125, 63, 31, 16, 8 and 4, 2, 1, 0.5, 0.25 ppm respectively.
(§4) Each vessel is then inoculated with a cell suspension of the appropriate test organism. Bacteria are grown in broth, fungi or agar slants for a time and at a temperature appropriate to the species being tested, and algae are a mixture of green algae and blue-green bacteria grown in a nutrient media. At the end of the growth period, in the case of bacteria, the broth is vortexed to disperse the cells.
(§5) The vessels are then incubated at the appropriate temperature. After the incubation, the vessels are examined for growth/no growth. The minimum inhibitory concentration (MIC) is defined as the lowest concentration of compounds that results in complete inhibition of growth of the test organism.

Pseudomonas aeruginosa = test: minimum inhibitory concentration, broth two-fold serial dilution test, Pseudomonas aeruginosa; assay type: cell-based, Pseudomonas aeruginosa ATCC 15442; conditions: for MIC: Pseudomonas aeruginosa, ATCC15442, Pseudomonas aeruginosa ATCC 15442, TSB media, lowest concentration with complete inhibition of growth, read-out: MIC (TSB media) Psae; for MIC (TSB media) Psae: Pseudomonas aeruginosa ATCC 15442, lowest concentration with complete inhibition of growth
Method: as §1, §2, §3, §4, §5
1. Pseudomonas aeruginosa

Aspergillus niger = test: minimum inhibitory concentration, broth two-fold serial dilution test, Aspergillus niger; assay type: cell-based, Aspergillus niger ATCC 6275; conditions: for MIC: Aspergillus niger, ATCC6275, Aspergillus niger ATCC 6275, TSB media, lowest concentration with complete inhibition of growth, read-out: MIC (TSB media) Anig; for MIC (TSB media) Anig: Aspergillus niger ATCC 6275, lowest concentration with complete inhibition of growth
Method: as §1, §2, §3, §4
(§6) In the case of fungi, the spores are harvested by pipetting water onto the slant and dislodging the spores with a sterile loop. The cell/spore suspension is standardized by controlling incubation time, temperature, and the volume of the diluent. The suspension is then used to inoculate the vessels containing the broth compound.
as §5
3. Aspergillus niger 6275 Anig

Rhodotorula rubra = test: minimum inhibitory concentration, broth two-fold serial dilution test, Rhodotorula rubra; assay type: cell-based; conditions: lowest concentration with complete inhibition of growth; for MIC: Rhodotorula, TSB media, read-out: MIC (TSB media) Rrub
Method: as §1, §2, §3, §4, §6, §5
4. Rhodotorula rubra Rrub

| Compound | MIC (Escherichia coli) [µg/mL] | MIC (Pseudomonas aeruginosa) [µg/mL] | MIC (Aspergillus niger) [µg/mL] | MIC (Rhodotorula rubra) [µg/mL] | MIC (TSB media) Ecol (Escherichia coli) [ppm] | MIC (TSB media) Psae (Pseudomonas aeruginosa) [ppm] | MIC (TSB media) Anig (Aspergillus niger) [ppm] | MIC (TSB media) Rrub (Rhodotorula rubra) [ppm] |
| --- | --- | --- | --- | --- | --- | --- | --- | --- |
| CCCCCCCCCCCCCC[N+]1(CC#CBr)CCCC1 [Compound 1, 1-tetradecyl-1-(3-bromopropargyl)-pyrrolidinium 4-methylbenzenesulfonate] | 8 | > 500 | < 4 | < 4 |  |  |  |  |
| CCCCCCCCCCCCCC[N+]1(CC#CBr)CCOCC1 [Compound 2, 1-tetradecyl-1-(3-bromopropargyl)-morpholinium benzenesulfonate] |  |  | < 4 | < 4 | 8 | 63 |  |  |
| CCCCCCCCCCCCCC[N+]1(CC#CBr)CCOCC1 [Compound 3, 1-tetradecyl-1-(3-bromopropargyl)-morpholinium 4-methylbenzenesulfonate] |  |  |  |  | 8 | 250 | < 4 | < 4 |
| CCCCCCCCCCCCCC[N+]1(CC#CBr)CCOCC1 [Compound 4, 1-tetradecyl-1-(3-bromopropargyl)-morpholinium methanesulfonate] |  |  |  |  | 32 | 500 | < 4 | < 4 |
| CCCCCCCCCCCCCC[N+]1(CC#CBr)CCCC1 [Compound 5, 1-tetradecyl-1-(3-bromopropargyl)-pyrrolidinium benzenesulfonate] |  |  |  |  | 8 | 500 | < 4 | < 4 |
| CCCCCCCCCCCCCC[N+]1(CC#CBr)CCCCC1 [Compound 6, 1-tetradecyl-1-(3-bromopropargyl)-piperidinium methanesulfonate] |  |  | < 4 | < 4 | > 500 | > 500 |  |  |
| CCCCCCCCCCCCCC[N+]1(CC#CBr)CCOCC1 [Compound 7, 1-tetradecyl-1-(3-bromopropargyl)-morpholinium n-butanesulfonate] |  |  |  |  | 16 | 500 | < 4 | < 4 |
| CCCCCCCCCCCCCC[N+]1(CC#CBr)CCCC1 [Compound 8, 1-tetradecyl-1-(3-bromopropargyl)-pyrrolidinium n-butanesulfonate] |  |  |  |  | < 4 | 250 | < 4 | < 4 |
| CCCCCCCCCCCCCC[N+]1(CC#CBr)CCOCC1 [Compound 9, 1-tetradecyl-1-(3-bromopropargyl)-morpholinium bromide] |  |  |  |  | 8 | 125 | < 4 | < 4 |
| CCCCCCCCCCCCC[N+]1(CC#CBr)CCOCC1 [Compound 10, 1-tridecyl-1-(3-bromopropargyl)-morpholinium bromide] | 32 | 250 | 16 | < 4 |  |  |  |  |
| CCCCCCCCCCCCCCCC[N+]1(CC#CBr)CCOCC1 [Compound 11, 1-hexadecyl-1-(3-bromopropargyl)-morpholinium bromide] |  | 500 |  |  | 16 |  | < 4 | < 4 |
| CCCCCCCCCCCC[N+]1(CC#CBr)CCOCC1 [Compound 12, 1-dodecyl-1-(3-bromopropargyl)-morpholinium 4-methylbenzenesulfonate] | 63 | 500 | 16 | < 4 |  |  |  |  |
| CCCCCCCCCCCCCCCC[N+]1(CC#CBr)CCOCC1 [Compound 13, 1-hexadecyl-1-(3-bromopropargyl)-morpholinium methanesulfonate] |  |  |  |  | > 500 | 500 | 16 | 32 |
| CCCCCCCCCCCCCC[N+]1(CC#CBr)CCCCC1C (centres unmarked) [Compound 14, 1-tetradecyl-1-(3-bromopropargyl)-(2-methyl)piperidinium 4-methylbenzenesulfonate] | < 4 |  | < 4 |  |  | 125 |  | < 4 |
| CCCCCCCCCCCCCC[N+]1(CC#CBr)CCCCC1C (centres unmarked) [Compound 15, 1-tetradecyl-1-(3-bromopropargyl)-(2-methyl)piperidinium methanesulfonate] |  |  |  |  | 5 | 300 | 3.2 | < 1 |
| CCCCCCCCCCCCCC[N+]1(CC#CBr)CCCCC1C (centres unmarked) [Compound 16, 1-tetradecyl-1-(3-bromopropargyl)-(2-methyl)piperidinium benzenesulfonate] |  |  |  |  | 8 | 500 | < 4 | < 4 |
| CCCCCCCCCCCCCC[N+]1(CC#CBr)CCCCC1 [Compound 17, 1-tetradecyl-1-(3-bromopropargyl)-piperidinium benzenesulfonate] |  |  |  |  | < 4 | 32 | < 4 | < 4 |
| CCCCCCCC[N+](CC#CBr)(CCCCCCCC)CCCCCCCC [Compound 18, trioctyl-(3-bromopropargyl) ammonium benzenesulfonate] | < 4 | 16 | 1.6 | 1.6 |  |  |  |  |
| CCCCCCCC[N+](C)(C)CC#CBr [Compound 19, dimethyloctyl(3-bromopropargyl) ammonium benzenesulfonate] | 16 | 250 | < 4 | < 4 |  |  |  |  |
| CCCCCCCC[N+](CC#CBr)(CCCCCCCC)CCCCCCCC [Compound 20, trioctyl(3-bromopropargyl) ammonium 4-methylbenzenesulfonate] |  |  |  |  | < 4 | 8 | 3.2 | 0.8 |
| CCCCCC[N+](CC#CBr)(CCCCCC)CCCCCC [Compound 22, trihexyl(3-bromopropargyl) ammonium benzenesulfonate] | 125 | 500 | 25 |  |  |  |  | 12.5 |
| CCCCCC[N+](CC#CBr)(CCCCCC)CCCCCC [Compound 23, trihexyl(3-bromopropargyl) ammonium 4-methylbenzenesulfonate] |  |  |  |  | 250 | 500 | 50 | < 50 |
| CCCCCCCCCCCC[N+](CC#CBr)(CCCCCCCCCCCC)CCCCCCCCCCCC [Compound 24, tridodecyl(3-bromopropargyl) ammonium 4-methylbenzenesulfonate] | 500 | 500 | > 50 | > 50 |  |  |  |  |

Reference: patent US5411933A, “Bromopropargyl quarternary ammonium compounds having antimicrobial activity” (Rohm & Haas Company, priority 1994, dated 1995)
